These results are taken from patent publication US20210100859A1, “HERPES SIMPLEX VIRUS (HSV) ANTICANCER THERAPIES” (priority 2019, published 2021).

One assay deals with TR127 cells. Briefly: Virus spread: GFP+ RAMBO infected cells by flow cytometry. It counts as cell-based, human. The following applies: TR127, RAMBO MOI=0.1 1 hr then CP 2 μM 16 hr; presence vs absence of CP. How it is done: FIGS. 1A-1J: RAMBO increases cisplatin accumulation in cisplatin-resistant ovarian cancer cells. (FIG. 1A) Representative histogram (left) and quantification (right) of percentage of GFP^+ infected cisplatin resistant ovarian cancer cells. TR127 cells infected with RAMBO (MOI=0.1) for 1 hr and then treated with CP (2 μM) for 16 hr. Data shown are mean percentage of GFP^+ RAMBO infected TR127 cells (±s.d) analyzed by flow cytometry (n=3/group). (FIG. 1B) Quantification of intracellular CP retained inside platin resistant OC cells treated with/without RAMBO. OVCAR8, TR127 and TR182 were treated with/without RAMBO (MOI=0.1) for one hour and then incubated with 2.5 μM Texas-red labeled CP. Twenty-four hours post-infection CP accumulation in cells was analyzed by flow cytometry. Data shown are mean fluorescence intensity (MFI) of Texas-red labeled CP (±s.d., n=3/group). […] Briefly, RNA harvested from OVTOKO cells treated with RAMBO (MOI=1) for 16 hr was analyzed by RNAseq. […] (FIG. 1I) Quantification of Texas-red labeled CP accumulation in TR127 cells knocked down for either ATP7B, ATP11B, or both was analyzed by flow cytometry (n=3/group). (FIG. 1J) Quantification of Texas-red labeled CP accumulation in OVTOKO cells overexpressing (OE) both ATP11B and ATP7B, or control (Ctl). Cells were analyzed by flow cytometry. […]
A general note: Flow cytometry measures light scatter and fluorescence of single cells or particles in a stream.

A further assay relates to ATP11B and ATP7B. Kind of assay: Western blot of efflux proteins. As to conditions: TR127 and TR182 cells treated with RAMBO and/or CP. The assay is classed as cell-based, human.

On to `N.N.[Cl][Pt][Cl]` [CP, cisplatin], for which the “GFP expression (GFP positive tumor cells as indicator of infection)” value with TR127 cells was “no difference”. The “protein expression of ATP11B and ATP7B” value in the assay with ATP11B and ATP7B was “no effect”.
